Tests used:
[1] = system: CHO (Chinese Hamster Ovary) cell-derived cell line; test: Average daily specific productivity: perfusion, fed-batch and RaMP; format: cell-based; details: for Average Daily Specific Productivity: 10 day production run
Source text: Average daily specific productivity was compared using traditional perfusion, fed-batch with sodium butyrate induction and RaMP processes. The same production cell line was used for all three methods. Culture conditions for all three methods were similar to those described in Example 1 above. Cells were inoculated at 5×10^5 cells/ml and were allowed to grow to the desired concentration before induction with sodium butyrate. Fed-batch culture was induced with sodium butyrate as a bolus addition. Fed-batch specific productivity calculations were normalized and averaged for new protein production per day. Average daily specific productivity was calculated using production yields from a 10 day production run. Maximal sodium butyrate concentration was 2 mM for both fed-batch and RaMP processes. Average daily yields using the RaMP method was approximately 6 times more than fed-batch or traditional perfusion methods.

[2] = system: CHO (Chinese Hamster Ovary) cell-derived cell line; test: Average daily recombinant protein production using RaMP, Example 5; format: cell-based
Procedure: Samples of harvested media were taken from the daily harvest and frozen. At the end of the production run, the frozen daily samples were tested using an anti-IgG (recognizing only intact IgG) ELISA assay in order to determine the protein yields. FIG. 1 is a graphical representation of the average daily yield of recombinant protein from both traditional perfusion and RaMP methods.
Cells were seeded at 5×10^5 cells/ml and were allowed to grow in the bioreactor for 6 days before the first harvest of recombinant protein on day 7. Conditions for this growth period are similar to those described in Example 1 above. Cells were grown in RBM12.1 media with a perfusion rate of 1 to 1.5 v/day. 1 mM sodium butyrate (final concentration) was added to perfusion medium and was perfused into the bioreactor on day 8. […] 2 mM sodium butyrate (final concentration) was added to the perfusion media and was perfused into the bioreactor on day 11. Cell viability was monitored daily by pulling samples from the bioreactor and trypan blue live/dead staining. Over the production run, the cell density reached upwards of 4.5×10^7 cells/ml. Using the RaMP method, the cell viability remained above 85% viable cells even with the sustained concentration of 2 mM sodium butyrate in the media. The average daily recombinant protein production reached over 0.6 g/L/day.

[3] = system: Chinese hamster ovary (CHO) cell line; test: Effect of increasing sodium butyrate concentrations on cell viability in perfusion culture; format: cell-based
Procedure: Additional experiments using higher concentrations of sodium butyrate induction were also performed. The cells were seeded and grown similar to the conditions described above. On day 7, […] sodium butyrate was introduced into the perfusion medium. On day 10, the sodium butyrate concentration was increased to 1.0 mM. On day 12, the sodium butyrate concentration was increased to 2.0 mM. On day 14, the sodium butyrate concentration was increased to 4.0 mM and on day 17, the sodium butyrate concentration was increased to 8.0 mM. Throughout the experiment, cell viability was over 85% and the viable cell concentration reached over 4.8×10^7 cells/ml.

recombinant CHO cells = details: sodium butyrate added in fluidized bed bioreactor; cited from earlier work
[4] = system: CHO (Chinese Hamster Ovary) cell-derived cell line; test: Cell viability with gradual NaB ramping in perfusion culture (summary experiment); format: cell-based
Procedure: In one experiment, 0.5 mM NaB (final concentration) was introduced into the bioreactor by perfusing RBM12.1 medium with 0.5 mM NaB into the bioreactor on day 7 of the production run. On day 10, the bioreactor was perfused with RBM 12.1 medium with 1.0 mM NaB. On day 13, the bioreactor was perfused with RBM12.1 medium with 1.5 mM NaB.

[5] = system: CHO (Chinese Hamster Ovary) cell-derived cell line; test: Cell viability during production period, Example 4 (RaMP); format: cell-based; details: RaMP: 0.5 mM sodium butyrate day 10, 1.0 mM day 14; entire production period
Procedure: Cells were seeded at 5×10^5 cells/ml and were allowed to grow for 9 days in the bioreactor before induction with butyrate for the RaMP method. Conditions for this growth period are similar to those described in Example 1 above. On day 10, media containing 0.5 mM sodium butyrate was perfused into the bioreactor. On day 14, media containing 1.0 mM sodium butyrate was perfused into the bioreactor.
Cell viability was monitored daily throughout the production period. Over the entire production period, cell viability remained high and never dropped below 85% for both traditional perfusion and RaMP methods.

Question: Which “Average Daily Specific Productivity” value ([1]; Fed-batch, sodium butyrate bolus addition, maximal 2 mM) does the source give for `CCCC(=O)[O-].[Na+]` [sodium butyrate] here?
Answer: 0.10 g/L/day ± 0.03

Question: What about the “Average Daily Specific Productivity” value ([1]; RaMP, maximal sodium butyrate 2 mM) of the same compound?
Answer: 0.64 g/L/day ± 0.07

Question: What about the “Average daily yields using RaMP relative to fed-batch or traditional perfusion methods” value ([1]; maximal sodium butyrate 2 mM) of the same compound?
Answer: approximately 6 times

Question: What about the “average daily recombinant protein production” value ([2]; 1 mM then 2 mM sodium butyrate, reached) of the same compound?
Answer: over 0.6 g/L/day

Question: What about the Average total production ([2]; sodium butyrate 1 mM, day 8 in culture) of the same compound?
Answer: 102 mg/L/day

Question: What about the Average total production ([2]; sodium butyrate 1 mM, day 9 in culture) of the same compound?
Answer: 159 mg/L/day

Question: And the Average total production ([2]; sodium butyrate 1 mM, day 10 in culture)?
Answer: 343 mg/L/day

Question: And the Average total production ([2]; sodium butyrate 2 mM, day 11 in culture)?
Answer: 381 mg/L/day

Question: What about the Average total production ([2]; sodium butyrate 2 mM, day 12 in culture) of the same compound?
Answer: 332 mg/L/day

Question: What about the Average total production ([2]; sodium butyrate 2 mM, day 13 in culture) of the same compound?
Answer: 590 mg/L/day

Question: What about the Average total production ([2]; sodium butyrate 2 mM, day 14 in culture) of the same compound?
Answer: 498 mg/L/day

Question: What about the Average total production ([2]; sodium butyrate 2 mM, day 15 in culture) of the same compound?
Answer: 577 mg/L/day

Question: And the Average total production ([2]; sodium butyrate 2 mM, day 16 in culture)?
Answer: 549 mg/L/day

Question: And the Average total production ([2]; sodium butyrate 2 mM, day 17 in culture)?
Answer: 526 mg/L/day

Question: What about the Average total production ([2]; sodium butyrate 2 mM, day 18 in culture) of the same compound?
Answer: 684 mg/L/day

Question: What about the “% viable cells” value ([3]; Na butyrate 0.5 mM, day 7) of the same compound?
Answer: 97.3%

Question: And the “% viable cells” value ([3]; Na butyrate 0.5 mM, day 8)?
Answer: 97.8%

Question: And the “% viable cells” value ([3]; Na butyrate 0.5 mM, day 9)?
Answer: 97.8%

Question: And the “% viable cells” value ([3]; Na butyrate 1.0 mM, day 10)?
Answer: 97.8%

Question: And the “% viable cells” value ([3]; Na butyrate 1.0 mM, day 11)?
Answer: 96.6%

Question: And the “% viable cells” value ([3]; Na butyrate 2.0 mM, day 12)?
Answer: 97.2%

Question: And the “% viable cells” value ([3]; Na butyrate 2.0 mM, day 13)?
Answer: 95.9%

Question: And the “% viable cells” value ([3]; Na butyrate 4.0 mM, day 14)?
Answer: 97%

Question: What about the “% viable cells” value ([3]; Na butyrate 4.0 mM, day 15) of the same compound?
Answer: 96.7%

Question: What about the “% viable cells” value ([3]; Na butyrate 4.0 mM, day 16) of the same compound?
Answer: 94.2%

Question: What about the “% viable cells” value ([3]; Na butyrate 8.0 mM, day 17) of the same compound?
Answer: 94.7%

Question: What about the “% viable cells” value ([3]; Na butyrate 8.0 mM, day 18) of the same compound?
Answer: 93.3%

Question: What about the “% viable cells” value ([3]; Na butyrate 8.0 mM, day 19) of the same compound?
Answer: 91.5%

Question: And the “% viable cells” value ([3]; Na butyrate 8.0 mM, day 20)?
Answer: 88.1%

Question: What about the cell viability ([3]; sodium butyrate stepped 0.5 to 8.0 mM, day 7 to day 17, throughout the experiment) of the same compound?
Answer: over 85%

Question: What about the viable cell concentration ([3]; sodium butyrate stepped 0.5 to 8.0 mM, reached) of the same compound?
Answer: over 4.8×10^7 cells/ml

Question: And the “cell growth and cell concentration” value (recombinant CHO cells)?
Answer: the cells stopped growing and cell concentration declined

Question: And the cell viability ([4]; 0.5 mM NaB day 7, 1.0 mM day 10, 1.5 mM day 13)?
Answer: did not decrease

Question: And the cell viability ([4]; gradual ramping of sodium butyrate to desired maximal concentration, compared to bolus addition)?
Answer: over 85%

Question: What about the cell viability [5] of the same compound?
Answer: ≥ 85%

Reference: patent US20080206819A1, “Intensified Perfusion Production Method” (priority 2006, published 2008)
